Measured values published in patent publication US5707821A, “Identification of phospholipase A2 inhibitors in Aβ peptide-mediated neurodegenerative disease” (priority 1995, dated 1998).

Tested on: human cortical neurons
Assay: Aβ neurotoxicity in human cortical neurons (alamarBlue), 2 h pretreatment with inhibitor
Type: cell-based
Conditions: Homo sapiens, Cortical neurone, 50 μM Aβ1-40, compound 390 nM to 100 μM, 2 h pretreatment and re-added with Aβ, 3 days, n=3
Description: Cultures of human cortical or hippocampal neurons were prepared using a modification of the procedure described in P. Seubert et al. (1992), Nature 359:325-327. Cortical or hippocampal tissue was dissociated by incubation in a trypsin/EDTA solution (0.05% trypsin +0.53 mM EDTA in HBSS; Gibco) for 20 minutes at 37° C. The trypsin was then inactivated by resuspending the cells in serum-containing medium (MEM/FBS): Modified Eagle's Medium (MEM) containing 1% glucose, 1 mM sodium pyruvate, 1 mM glutamine, and supplemented with 10% fetal bovine serum (Gibco). Cells were then pelleted by centrifugation and resuspended in a chemically-defined medium (MEM/B27): MEM containing B27 supplement (Gibco) in place of FBS. Polyethyleneimine (PEI)-coated 6.4-mm (96-well) dishes were rinsed once with MEM/FBS, and then seeded at 0.75-1.25×10^5 cells per well in 0.1 ml MEM/B27. Cultures were maintained in a H2 O-saturated incubator with an atmosphere of 95% air/5% CO2 at 37° C. The culture medium was exchanged twice weekly.
Amyloid-β (Aβ) stock solutions were prepared as 1 mM stocks in sterile ddH2 O immediately prior to addition to cultures. Rat cortical neurons were exposed to Aβ by removing the culture medium and replacing it with DMEM/N2 or DMEM/B27 containing Aβ1-40. Human cortical neurons were exposed to Aβ by removing the culture medium and replacing it with MEM, MEM/N2, or MEM/B27 containing Aβ1-40. Cultures were maintained for 2-4 days before neuronal survival was quantified using alamarBlue™.
The alamarBlue™ assay incorporated a proprietary fluorometric/colorimetric metabolic indicator (Alamar Biosciences, Inc.). Viable cells convert alamarBlue™ from an oxidized (non-fluorescent, blue) form to a reduced (fluorescent, red) form. Assays were performed by replacing the culture media with a 10% alamarBlue™ solution in DMEM (rat cortical cultures) or MEM (human cortical cultures). Reduction of alamarBlue™ was determined spectrofluorometrically using a Millipore Cytofluor 2350 Scanner (excitation, […]; emission, 590 nm) and CytoCalc™ software (Millipore Corporation).
The effect of pretreating human cortical neuron cultures with the benzenesulfonamide PLA2 inhibitors and arachidonyl trifluoromethyl ketone prior to exposure to a neurotoxic concentration of Aβ1-40 was determined.
Human cortical neurons were treated with 50 μM Aβ1-40 and various inhibitors of PLA2. Compounds were added 2 hours prior to Aβ1-40 treatment at concentrations of 390 nM to 100 μM, and were then re-added at the time of Aβ1-40 treatment. Compounds were also added in an identical manner to neuronal cultures in the absence of Aβ1-40. Neuronal survival was determined after 3 days of treatment by alamarBlue®. IC50 is the dose of compound that inhibited Aβ-mediated neurotoxicity by 50%. […] Data represents the mean ± SD (n=3). ND, not detected at the concentration range used.

CN(C(=O)/C=C/c1ccc(S(C)(=O)=O)cc1)c1ccc(S(=O)(=O)NC2CCCCCC2)cc1 [AN20606, N-cycloheptyl-4-[N-methyl-N-[(E)-3-(4-methylsulfonylphenyl)-2-propenoyl]amino]benzenesulfonamide]
Emax (72 h, read-out: Max Inh): 89% | IC50 (ND = not detected at the concentration range used, read-out: IC50 (dose that inhibited Aβ-mediated neurotoxicity by 50%)): 3000 nM
